Consider 7 compounds from US20230271950A1, “ANTIBACTERIAL PICOLINAMIDE COMPOUNDS” (University of Notre Dame Du Lac, priority 2020, published 2023).

By IC50 is commonly meant the point on the concentration scale where inhibition reaches its midpoint. The term MIC denotes the lowest concentration found to suppress growth.

≈ marks a conversion by molar mass, not a printed value. Read-outs that look alike come from different tables or passages of the source.

One data set relates to HeLa cells. The data set is described as follows: XTT cytotoxicity assay with HeLa cells. The data set is classed as cell-based. The conditions noted are these: Homo sapiens. The method, then:
XTT assay. Cytotoxicity assays were performed in triplicate against HeLa cells (ATCC CCL-2). The IC50 values were calculated by nonlinear regression with GraphPad Prism 5 (San Diego, Calif.).
XTT assay. XTT assays were performed with HeLa cells (ATCC CCL-2) in triplicate, as previously described (Lancet 2008, 371, 1486). IC50 values were determined by nonlinear regression using GraphPad Prism 5 (San Diego, Calif.).
In general terms: Tetrazolium dyes change colour on reduction, which living cells bring about.

Data set [1] in a line: Pharmacokinetics study in mice (plasma and feces levels). It is filed as in vivo. The conditions noted are these: for concentration at 8 h: female, CD-1, mouse. The method, then: Pharmacokinetics (PK) study. Mice (n=2 per time point) were given a single 100 μL solution of 5 mg/mL of compound 1 (equivalent to 20 mg/kg). Terminal blood was collected in heparinized syringes by cardiac puncture at 30 min, 1 h, 2 h, 4 h, and 8 h. The two mice at the 8-h time point were place in metabolism cages for collection of feces. Compound 1 was dissolved in 5% DMSO/95% water with 96 mg/mL of sodium bicarbonate. Blood was centrifuged at 1,000 g for 20 min at 4° C. and plasma was separated and stored at −80° C. until analysis. A 45-μL aliquot of plasma was mixed with 5 μL of H2O:ACN (1:1) and was quenched with 100 μL of acetonitrile containing 20 μM of internal standard (compound 10). The sample was centrifuged at 21,000 g for 15 min at 4° C. to precipitate the proteins, and the resulting supernatant was analyzed by UPLC-TQD detector using multiple-reaction monitoring (MRM). Calibration curves for compound 1 were prepared from 0 to 102.4 μM using a control mouse plasma (50 μL). Peak area ratios relative to internal standard and linear regression was used from which the concentrations in plasma samples from the PK study were determined.
An average of 250 mg of feces were collected at 8 h from two mice, and subsequently homogenized with 6 times the feces volume (1,500 μL of H2O:ACN 1:1) using a Bullet Blender (Next Advance, Inc., Troy, N.Y.). The homogenate was centrifuged at 21,000 g for 5 min. The fecal supernatant (72 μL) was mixed with 8 μL of a solution of H2O:ACN (1:1) and 40 μL of 50 μM of the internal standard in ACN with 0.5% formic acid. A calibration curve was prepared from 0 μM to 102.4 μM in control mouse feces. Plasma and feces were analyzed on a Waters TQD tandem quadrupole detector (Waters Corporation, Milford, Mass.) using a YMC-Triart C18 100 mm×2.0 mm column (3μ, YMC Co. Ltd, Kyoto, Japan). The chromatographic conditions consisted of elution with 30% H2O/70% ACN containing 0.10% formic acid for 5 min at a flow rate 0.5 mL/min. Mass Spectrometry acquisition was performed in the positive electrospray ionization mode with MRM. The capillary, cone, extractor and RF lens voltages were set at 2.8 kV, 40 V, 1 V and 0.1 V, respectively. The desolvation and cone gas (nitrogen) flow rates were 650 L/h and 50 L/h, respectively. The source temperature was set at 150° C. The desolvation temperature was 350° C. The MRM transitions used were 459.4→254.0 for compound 1, and 294.8→133.5 for the internal standard.
Animals. Female C57BL/6 mice weighing 18-20 g and 6-8 weeks of age were used for the efficacy study (Jackson, Bar Harbor, Me.). Female CD-1 mice (24-31 g and 7-8 weeks of age) were used for the PK study. They were housed in groups of five mice in sterile polycarbonate shoeboxes with bedding consisting of ¼-inch corncob (The Andersons Ind., Maumee, Ohio) and Alpha-Dri (Shepherd Specialty Papers, Inc., Richland, Mich.). Mice were maintained on a 12-h light/dark cycle at 72° F. and were given Teklad 2918 irradiated extruded rodent diet and water ad libitum. All procedures were performed in accordance with and approved by the University of Notre Dame Institutional Animal Care and Use Committee.
Pharmacokinetics (PK) Studies. Compounds 4, 87, 107, and 108 were dissolved in 10% DMSO, 25% propylene glycol, 15% Tween 80 and 50% water at concentrations of 5 mg/mL or 10 mg/mL. Compound 116 was dissolved in 5% DMSO, 95% water with 96 mg/mL of sodium bicarbonate. Mice (n=2 per time point) were given a single 100 μL oral gavage of the test compound (equivalent to either 10 mg/kg and/or 20 mg/kg), and terminal blood was collected in heparinized syringes by cardiac puncture at 30 min, 1 h, 2 h, 4 h, and 8 h. An average of 250 mg of feces were collected after 8 h from two mice housed in metabolism cages in each group for further analysis. Blood was centrifuged at 1000 g for 2 min at 4° C. to obtain plasma. Plasma and fecal samples were stored at −80° C. until analysis. […]

Data set [2] deals with stationary-phase C. difficile. The data set is described as follows: Time-kill assay, stationary-phase C. difficile. The settings on record: 8×, 16×, and 32×MIC. The data set is classed as cell-based, Clostridioides difficile. The method, then:
Time-kill assay. […] A control tube without antibiotic was also included. At intervals of 4, 8, and 24 h, 100-μL aliquots of the cultures were plated onto pre-reduced brain heart infusion broth agar media for colony counts. […] The experiment was done in triplicate.

Data set [3] concerns C. difficile strain ATCC43255. The data set is described as follows: Serial passage for development of resistance. It is filed as cell-based, Clostridioides difficile. The conditions noted are these: for increase of MIC on serial passage: C. difficile ATCC43255, 25 passages; for MIC: Clostridioides difficile.
The test system of data set [4] is Fecal microbiota preparation. The data set is described as follows: MIC against fecal microbiota preparation. It is filed as cell-based. The settings on record: Fecal microbiota preparation from OpenBiome tested at 1000-fold dilution. The method, then:
Minimum inhibitory concentrations (MIC). MICs for C. difficile strains and the common gut bacteria were determined using broth microdilution techniques as reported earlier using brucella broth supplemented with hemin and vitamin K or supplemented BHIS broth. Lactobacillus MRS broth was used for lactobacillus strains. Sodium lactate was supplemented in the media for Veillonella sp. […] All incubations, unless specified otherwise, were carried out at 24 h or 48 h at 37° C. in an anaerobic chamber (Whitley DG250 workstation, Microbiology International, Frederick, Md.). Corynebacterium and Lactobacillus species were incubated aerobically.

Another data set deals with CDI. The conditions noted are these: patients treated with the antibiotic; cited from earlier work.
Where [5] appears, read: single oral gavage, dose 20 mg · kg^−1, feces collected after 8 h, read-out: Drug concentration in fecal samples (mg kg^−1 feces).
Setting [6] is: 20 mg/kg single oral administration.

`O=C(Nc1ncco1)c1cc(Oc2cccc(OC(F)(F)F)c2)ccn1` [Compound 108, N-(Oxazol-2-yl)-4-(3-(trifluoromethoxy)phenoxy)picolinamide]: the IC50 with HeLa cells (Table 6) turned out to be 93.3 ± 1.7 µg/mL (≈ 255 µM). In addition, in data set [1] (dose 20 mg · kg^−1), the “Conc. feces/MIC” value is 49. In data set [1] (setting [5]), the concentration at 8 h was 49000 ng/g.
Regarding `O=C(O)c1ccc2oc(NC(=O)c3cc(Oc4cccc(OC(F)(F)F)c4)ccn3)nc2c1` [Compound 1, Sodium 2-(4-(3-(trifluoromethoxy)phenoxy)picolinamido)benzo[d]oxazole-5-carboxylate], the IC50 in the data set on HeLa cells is 179 ± 4 µg/mL; with HeLa cells (Table 6), 179 µg/mL. Besides, in data set [2], the “reduction of C. difficile stationary-phase growth” value is reported as 2 log10. In addition, in data set [1] (setting [6]), the Concentrations in plasma result is “non-quantifiable”. Moreover, in data set [1] (setting [6]), the “levels in feces higher than the MIC for C. difficile ATCC 43255” value was > 100 fold. Further, in data set [1] (dose 20 mg · kg^−1), the “Conc. feces/MIC” value is on record as 108. The concentration at 8 h in data set [1] (20 mg/kg single oral administration, feces collected at 8 h, read-out: levels in feces) was 13000 ng/g. Moreover, in data set [1] (single oral gavage, dose 20 mg · kg^−1, feces collected after 8 h), the “Drug concentration in fecal samples (mg kg^−1 feces)” value is 13 mg/kg. For the same compound, in data set [3], the “increase of MIC on serial passage” value was found to be 8 fold. Besides, the MIC was 1 µg/mL in data set [3] (ATCC43255, read-out: MIC after serial passage); 0.125 µg/mL in data set [3] (ATCC43255, read-out: starting MIC in serial passage); > 128 µg/mL in data set [4].
For `CCc1c(Cl)c(O)c(Cl)c(O)c1C(=O)O[C@H]1[C@H](O)[C@H](OC)[C@H](OC/C2=C\C=C\C[C@H](O)/C(C)=C/[C@H](CC)[C@@H](O[C@@H]3OC(C)(C)[C@@H](OC(=O)C(C)C)[C@H](O)[C@@H]3O)/C(C)=C/C(C)=C/C[C@@H]([C@@H](C)O)OC2=O)O[C@@H]1C` [FDX, fidaxomicin, reference compound], the “Recurrence of CDI” value in the data set with CDI is on record as 15%. In data set [4], the MIC was > 128 µg/mL.
Consider `O=C(Nc1ncco1)c1cc(-c2ccc(Cl)c(Cl)c2)ccn1` [Compound 87, 4-(3,4-Dichlorophenyl)-N-(oxazol-2-yl)picolinamide], for which, in the data set with HeLa cells (Table 6), the IC50 is 95.2 ± 1 µg/mL (≈ 285 µM). In addition, in data set [1] (dose 10 mg · kg^−1), the “Conc. feces/MIC” value was found to be 6.6. Also, the concentration at 8 h in data set [1] (single oral gavage, dose 10 mg · kg^−1, feces collected after 8 h, read-out: Drug concentration in fecal samples (mg kg^−1 feces)) came to 790 ng/g.
For `Cc1ncc([N+](=O)[O-])n1CCO` [MTZ, metronidazole, reference compound], the MIC in data set [4] was > 128 µg/mL.
With `CN[C@H](CC(C)C)C(=O)N[C@H]1C(=O)N[C@@H](CC(N)=O)C(=O)N[C@H]2C(=O)N[C@H]3C(=O)N[C@H](C(=O)N[C@H](C(=O)O)c4cc(O)cc(O)c4-c4cc3ccc4O)[C@H](O)c3ccc(c(Cl)c3)Oc3cc2cc(c3O[C@@H]2O[C@H](CO)[C@@H](O)[C@H](O)[C@H]2O[C@H]2C[C@](C)(N)[C@H](O)[C@H](C)O2)Oc2ccc(cc2Cl)[C@H]1O` [VAN, vancomycin, reference compound], in the data set on CDI, the “Recurrence of CDI” value was 25%. In addition, in data set [2], the “reduction of C. difficile stationary-phase growth” value worked out at 1 log10. In addition, the “increase of MIC on serial passage” value in data set [3] is 8 fold. For the same compound, the MIC is 4 µg/mL (≈ 2.76 µM) in data set [3] (C. difficile ATCC43255, sub-MIC concentrations, 25 passages, read-out: MIC after serial passage) and > 128 µg/mL in data set [4].
On to `O=C(Nc1ncco1)c1ccnc(-c2ccc(Cl)c(Cl)c2)c1` [Compound 4, 2-(3,4-Dichlorophenyl)-N-(oxazol-2-yl)isonicotinamide], for which 79.9 ± 1 µg/mL (≈ 239 µM) corresponded to half-maximal inhibition in the data set with HeLa cells (Table 6) (IC50). The “Conc. feces/MIC” value in data set [1] (dose 20 mg · kg^−1) came out at 11. In addition, the concentration at 8 h in data set [1] (setting [5]) was found to be 2800 ng/g.
